Measured values reported in patent publication US8183285B2, “Therapeutic agent for irritable bowel syndrome and methods thereof” (Takeda Pharmaceutical Company Limited, priority 2006, dated 2012).

Assays:
[1] = system: melatonin receptor MT1/MT2; details: disclosed in U.S. Pat. No. 6,034,239; cited from earlier work
[2] = system: restraint stress-induced defecation; test: Restraint stress-induced defecation test; assay type: in vivo; details: male Wistar rats
Description: For the experiment, 10 week-old male Wistar rats (SLC) were used. Compound A (0.3, 3, 10 and 30 mg/kg) or a vehicle (control group, 0.5% methylcellulose) was administered orally with a dose of 4 ml/kg, and after 15 minutes, a restraint stress was loaded. Fecal pellets were retrieved 2 hours after the beginning of the restraint stress loading, and the number of feces was counted. In addition, as for normal group, rats were left in their individual cages without any after administration of vehicle, and the number of feces for 2 hours was counted. Experiment was carried out according to Test Example 2, wherein melatonin (10 and 30 mg/kg) instead of compound A was administered orally.

viscerosensory response = test: Viscerosensory response test: abdominal oblique muscle contractions under colonic distension stimulus after 1% acetic acid instillation; assay type: in vivo; details: male SD rats, oral 0.3, 3 and 30 mg/kg, 30 minutes before second colonic distension stimulus; FIG. 1
Description: For the experiment, 7 to 8 week-old male SD rats (CREA Japan, Inc.) were used. Under ether anesthesia, the rats were sutured with a force transducer (F12-IS-SL, Star Medical Inc.) on the abdominal oblique muscle, and used for the experiment after waiting at least one day or more postoperatively for recovery of the animals. After fasting for 18 hours, 1% acetic acid was instilled into the colon to produce a hypersensitive condition. One hour after the instillation of acetic acid, a balloon was inserted into the colon, fixed, and colonic distension stimulus was loaded for 10 minutes by inflating the balloon. The colonic distension stimulus was loaded two times before and after administration of compound A, and the observed contraction number of the abdominal oblique muscle was counted. The result was expressed as inhibition percent. Determination of the abdominal muscle contraction was conducted with the naked eye and waveform of force transducer. Compound A was suspended in a 0.5% methylcellulose, and administered orally with a volume of 4 mL/kg 30 minutes before the second colonic distension stimulus (0.3, 3 and 30 mg/kg).

normal defecation = test: Normal defecation test; assay type: in vivo; details: male Wistar rats, oral 30 mg/kg; FIG. 3
Description: Further, a study on normal defecation was also conducted. Until the day before the experiment, two rats were kept in a cage and accustomed to the measuring condition. On the day of experiment, compound A or vehicle (control group, 0.5% methylcellulose) was administered orally with a dose of 4 ml/kg, and after 15 minutes, the measurement of defecation was commenced. The number of feces was counted two hours after the initiation of measurement, and the result was expressed by the number of feces per two rats.

[3] = system: abdominal symptoms of irritable bowel syndrome; details: female patients suffering from irritable bowel syndrome; cited from earlier work
[4] = system: partial restraint stress-induced defecation; details: experimental model for irritable bowel syndrome; cited from earlier work

Row | SMILES | melatonin receptor MT1/MT2 agonistic action [1] | inhibition of restraint stress-induced defecation (number of feces for 2 hours) ([2]; oral 30 mg/kg, 15 minutes before restraint stress, FIG. 2) | inhibition of viscerosensory response (contraction number of abdominal oblique muscle, inhibition percent) (viscerosensory response) | inhibition of normal defecation (number of feces per two rats, 2 hours) (normal defecation) | improvement of abdominal symptoms (abdominal pain, abdominal bloating, sense of urgency for defecation) [3] | inhibitory action on partial restraint stress-induced defecation [4] | inhibition of restraint stress-induced defecation (number of feces for 2 hours) ([2]; oral 10 and 30 mg/kg, FIG. 4)
1 | CCC(=O)NCC[C@@H]1CCc2ccc3c(c21)CCO3 [compound A, (S)—N-[2-(1,6,7,8-tetrahydro-2H-indeno[5,4-b]furan-8-yl)ethyl]propionamide] | has a melatonin receptor MT1/MT2 agonistic action | inhibited significantly | dose-dependent significant inhibition action | not inhibited |  |  | 
2 | COc1ccc2[nH]cc(CCNC(C)=O)c2c1 [melatonin] |  |  |  |  | improves significantly | shows an inhibitory action | did not inhibit
